Patent US20150104868A1, “Methods of Maintaining and Improving Biological Cell Function and Activity” (GARGILL INCORPORATED, priority 2012, published 2015)

Assays:
HUVEC cells [1] = test: Eicosanoids in HUVEC pellets and supernatants; type: cell-based, human
Description: Another parameter evaluated in the targeted assays included the study of 23 eicosanoids in a comparison of HG versus HGERT conditions.
In studying the supernatants, 14,15-dihydroxy-5Z,8Z,11Z-eicosatrienoate (14,15-DiHETrE), produced from arachidonic acid via Cyp 2C and 2J to form epoxyeicosatrienoic acids (EETs), then converted to DiHETrE via sEH, decreased from 0.0085 to 0.0040 nM (p<0.05). This decrease in 14,15-DiHETrE is consistent with high glucose suppression of sEH, and should result in increased EETs, which would produce vasodilation. EETs were not, however, observed to be increased.

[2] = in vitro; cited from earlier work
HUVEC cells [3] = conditions: ERT by itself, non-diabetic conditions; cited from earlier work
[4] = in vivo, po; cited from earlier work

OC[C@@H](O)[C@@H](O)CO [ERT, meso-1,2,3,4-tetrahydroxybutane]
14,15-DiHETrE in supernatants (HUVEC cells [1]; HG vs HGERT): 4 pM
TXB2 (HUVEC cells [1]; HG vs HGERT): 1.20
12-HETE in pellets (HUVEC cells [1]; HGERT vs HG): decreasing 12-HETE levels
hydroxyl radical scavenging [2]: effective in scavenging hydroxyl radicals
superoxide or peroxynitrite scavenging activity [2]: does not possess any superoxide or peroxynitrite scavenging activity
viability, oxidative damage, SOD activity, nitric oxide production, adhesion molecule production, transcriptome (HUVEC cells [3]): did not show changes
excretion [4]: excreted unchanged in the urine
metabolism [4]: not metabolized
